From ChEMBL document CHEMBL4316646, “Strepantibins A-C: Hexokinase II Inhibitors from a Mud Dauber Wasp Associated Streptomyces sp” (J Nat Prod, 2019)
Where a name gives a salt, the structure may show the parent alone. Calls of active or inactive are those of the source. No cut-off for these calls is given here.

How the values were obtained:
[1] = test system: HepG2; assay: Cytotoxicity against human HepG2 cells assessed as reduction in cell viability by MTT assay; format: functional, cell-based
[2] = test system: PLC-PRF-5; assay: Cytotoxicity against human PLC/PRF/5 cells assessed as reduction in cell viability by MTT assay; format: functional, cell-based
[3] = test system: SMMC-7721; assay: Cytotoxicity against human SMMC7721 cells assessed as reduction in cell viability by MTT assay; format: functional, cell-based
[4] = test system: L02; assay: Cytotoxicity against human LO2 cells assessed as reduction in cell viability by MTT assay; format: ADME, cell-based
[5] = molecular target: T1, Hexokinase-2 (Homo sapiens, UniProt P52789); assay: Inhibition of HK2 (unknown origin) using glucose-6-phosphate dehydrogenase as substrate preincubated for 10 mins followed by substrate addition
T1 sequence (P52789 whole entry): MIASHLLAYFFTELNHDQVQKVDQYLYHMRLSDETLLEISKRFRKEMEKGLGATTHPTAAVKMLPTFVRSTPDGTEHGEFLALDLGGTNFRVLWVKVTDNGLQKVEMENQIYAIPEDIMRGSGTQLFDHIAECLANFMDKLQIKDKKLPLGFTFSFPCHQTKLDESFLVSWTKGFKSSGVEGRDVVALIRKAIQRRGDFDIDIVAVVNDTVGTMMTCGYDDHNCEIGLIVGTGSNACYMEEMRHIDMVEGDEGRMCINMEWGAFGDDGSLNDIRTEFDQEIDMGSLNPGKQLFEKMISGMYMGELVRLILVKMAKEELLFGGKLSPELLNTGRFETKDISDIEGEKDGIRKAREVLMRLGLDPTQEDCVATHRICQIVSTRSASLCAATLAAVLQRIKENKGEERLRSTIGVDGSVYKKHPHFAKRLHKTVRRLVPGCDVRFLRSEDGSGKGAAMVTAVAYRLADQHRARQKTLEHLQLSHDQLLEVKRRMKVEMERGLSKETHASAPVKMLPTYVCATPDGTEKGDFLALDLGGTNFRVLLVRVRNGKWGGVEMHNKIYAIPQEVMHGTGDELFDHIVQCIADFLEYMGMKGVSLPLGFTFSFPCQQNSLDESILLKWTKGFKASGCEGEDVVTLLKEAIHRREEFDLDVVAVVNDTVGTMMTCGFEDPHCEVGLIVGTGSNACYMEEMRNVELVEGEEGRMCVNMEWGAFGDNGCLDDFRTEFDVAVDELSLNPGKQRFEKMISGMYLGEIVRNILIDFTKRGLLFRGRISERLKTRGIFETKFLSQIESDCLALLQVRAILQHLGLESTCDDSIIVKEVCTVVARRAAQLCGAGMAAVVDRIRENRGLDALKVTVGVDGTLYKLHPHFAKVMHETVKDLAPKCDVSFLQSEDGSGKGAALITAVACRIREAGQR

[6] = test system: SMMC-7721; assay: Induction of apoptosis in human SMMC7721 cells assessed as chromatin […] at 0.5 to 8 uM measured after 24 hrs by DAPI staining based fluorescence microscopic analysis; format: functional, cell-based
[7] = test system: SMMC-7721; assay: Induction of apoptosis in human SMMC7721 cells assessed as formation of apoptotic bodies at 0.5 to 8 uM measured after 24 hrs by DAPI staining based fluorescence microscopic analysis; format: functional, cell-based
[8] = compound: COC1=C(c2ccccc2)C(=O)[C@@](O)(CC(C)=O)C(c2ccccc2)=C1; assay: (§1) Competitive-inhibition of HK2 (unknown origin) assessed as Km at 10 uM using varying levels of glucose-6-phosphate dehydrogenase as substrate by Lineweaver-burk plot analysis; details: Homo sapiens
[9] = compound: CC1(C)N=C2C(c3ccccc3)=CC(=O)C(c3ccccc3)=C2O1; assay: as §1; details: Homo sapiens
[10] = compound: COc1cc(-c2ccccc2)c(=O)c(C(C)=O)c(O)c1-c1ccccc1; assay: as §1; details: Homo sapiens

O=c1[nH]cc(F)c(=O)[nH]1 [FLUOROURACIL] was tested, and the IC50 [1] was 3.6 µM, the IC50 [2] was 2.8 µM and the IC50 [3] was 2.5 µM. It also gave an IC50 [4] of 10.6 µM.

COc1cccc2c1C(=O)c1c(O)c3c(c(O)c1C2=O)C[C@@](O)(C(=O)CO)C[C@@H]3O[C@H]1C[C@H](N)[C@H](O)[C@H](C)O1 [DOXORUBICIN HYDROCHLORIDE] showed an IC50 [1] of 2.6 µM, an IC50 [2] of 1.9 µM and an IC50 [3] of 1.1 µM. The IC50 [4] was 13.5 µM.

COC1=C(c2ccccc2)C(=O)[C@@](O)(CC(C)=O)C(c2ccccc2)=C1 was tested, and the IC50 [1] was 2.3 µM, the IC50 [5] was 9.8 µM and the IC50 [2] was 1.9 µM. The Activity [6] was “Active”, the IC50 [3] was 2.9 µM and the IC50 [4] was 11.2 µM. The Activity [7] was “Active”.

In the case of CC1(C)N=C2C(c3ccccc3)=CC(=O)C(c3ccccc3)=C2O1, the IC50 [1] is reported as 12.3 µM, the IC50 [5] is reported as 34.6 µM and the IC50 [2] is reported as 11.6 µM. The IC50 [3] was 4.9 µM and the IC50 [4] was 17.6 µM.

COc1cc(-c2ccccc2)c(=O)c(C(C)=O)c(O)c1-c1ccccc1 showed an IC50 [1] of 9.5 µM, an IC50 [5] of 31.2 µM and an IC50 [2] of 7.1 µM. The IC50 [3] was 10.3 µM and the IC50 [4] was 17.8 µM.

B1: Hexokinase-2 (Homo sapiens), P52789 (protein)
chain: T1 sequence (P52789 whole entry)
B1 gave a Km [8] of 430 µM, a Km [9] of 290 µM and a Km [10] of 310 µM.
